Literature values in patent US20250144071A1, “METHOD FOR PRODUCING ELLAGIC ACID-CONTAINING COMPOSITION AND ELLAGIC ACID-CONTAINING COMPOSITION” (SUMITOMO CHEMICAL COMPANY, LIMITED, priority 2022, published 2025).

O=c1oc2c(O)c(O)cc3c(=O)oc4c(O)c(O)cc1c4c23 [ellagic acid]
Solubility of ellagic acid in water: about 20 μg/mL
